# Compound: CCCS(=O)(=O)Nc1ccc(F)c(C(=O)c2c[nH]c3ncc(-c4ccc(Cl)cc4)cc23)c1F [Vemurafenib] + Nc1nc2[nH]cc(CCc3ccc(C(=O)N[C@@H](CCC(=O)O)C(=O)O)cc3)c2c(=O)[nH]1 [Pemetrexed] (partner 0.2 µM)
# Experiment: relative viability (nuclei count vs DMSO), 5 days (fraction); higher = more cells survive
# Settings: first compound 0.03162 µM
# How it was run: (§1)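 A single step with final 0.05% Triton X-100, 1% formaldehyde and 1 ug/ml Hoechst fixed the cells and stained nuclei 5 days after treatment. Lung cancer cell lines in 1536-well plates had been treated by pin tool the day after seeding with one drug alone or a fixed anchor-drug dose plus five library-drug doses (not always all listed) in √10 steps, and nuclei were counted on 4× images. Relative viability is the ratio of nuclei in treated wells to nuclei in vehicle wells, taken as the median of duplicate plates.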
row,Cell Line,relative viability
1,A-427,0.866
2,NCI-H2009,1.13
3,EKVX,0.379
4,NCI-H2087,0.646
5,NCI-H1734,0.396
6,LCLC-103H,0.495
7,LU99A,0.229
8,NCI-H460,0.0604
9,SK-LU-1,0.928
10,COR-L23,0.195
11,HCC-15,0.227
12,NCI-H1944,0.596
13,EMC-BAC-2,0.447
14,NCI-H1395,0.679
15,LC-2-ad,0.252
16,NCI-H2085,0.764
17,NCI-H647,0.164

row,Cell Line,relative viability
1,HARA,0.24
2,NCI-H3122,0.206
3,NCI-H358,0.208
4,CAL-12T,1.16
5,COR-L 105,0.939
6,NCI-H520,0.689
7,NCI-H2228,0.315
8,NCI-H23,0.564
9,HCC-827,0.273
10,NCI-H2347,0.413
11,LXF-289,0.871
12,NCI-H1666,0.805
13,RERF-LC-KJ,0.501
14,NCI-H650,0.909
15,NCI-H322M,0.587
16,NCI-H596,0.501

# Same assay, conditions: first compound 0.1 µM
row,Cell Line,relative viability
1,A-427,0.918
2,NCI-H2009,0.897
3,NCI-H2087,0.63
4,NCI-H1734,0.382
5,LCLC-103H,0.515
6,LU99A,0.196
7,NCI-H460,0.058
8,SK-LU-1,0.891
9,COR-L23,0.198
10,HCC-15,0.226
11,EMC-BAC-2,0.475
12,NCI-H1395,0.744
13,LC-2-ad,0.254
14,NCI-H2085,0.6
15,NCI-H647,0.174
16,HARA,0.234
17,NCI-H3122,0.188
18,NCI-H358,0.179
19,CAL-12T,1.15
20,LCLC-97TM1,0.163
21,NCI-H520,0.643
22,NCI-H2228,0.321
23,NCI-H23,0.772
24,NCI-H2347,0.441
25,LXF-289,0.868
26,NCI-H1666,0.847
27,RERF-LC-KJ,0.486
28,NCI-H650,0.913
29,NCI-H596,0.494

# Same assay, conditions: first compound 0.3162 µM
row,Cell Line,relative viability
1,NCI-H2009,0.869
2,EKVX,0.405
3,NCI-H2087,0.544
4,NCI-H1734,0.385
5,LCLC-103H,0.377
6,NCI-H460,0.065
7,SK-LU-1,0.861
8,COR-L23,0.186
9,HCC-15,0.209
10,NCI-H1944,0.564
11,EMC-BAC-2,0.358
12,NCI-H1395,0.757
13,LC-2-ad,0.249
14,NCI-H2085,0.585
15,NCI-H647,0.169
16,HARA,0.2

row,Cell Line,relative viability
1,NCI-H3122,0.214
2,NCI-H358,0.189
3,CAL-12T,1.52
4,COR-L 105,1.2
5,LCLC-97TM1,0.185
6,NCI-H520,0.532
7,NCI-H2228,0.391
8,NCI-H23,0.622
9,HCC-827,0.287
10,NCI-H2347,0.357
11,LXF-289,0.903
12,NCI-H1666,0.913
13,RERF-LC-KJ,0.441
14,NCI-H650,0.551
15,NCI-H322M,0.597
16,NCI-H596,0.405

# Same assay, conditions: first compound 1 µM
row,Cell Line,relative viability
1,A-427,1.1
2,NCI-H2009,0.915
3,EKVX,0.442
4,NCI-H2087,0.678
5,NCI-H1734,0.399
6,LCLC-103H,0.456
7,LU99A,0.199
8,NCI-H460,0.0749
9,SK-LU-1,0.974
10,COR-L23,0.181
11,HCC-15,0.222
12,NCI-H1944,0.569
13,EMC-BAC-2,0.437
14,NCI-H1395,0.814
15,LC-2-ad,0.276
16,NCI-H2085,1.04
17,NCI-H647,0.198

row,Cell Line,relative viability
1,HARA,0.246
2,NCI-H3122,0.203
3,NCI-H358,0.193
4,CAL-12T,1.17
5,COR-L 105,1.05
6,LCLC-97TM1,0.149
7,NCI-H520,0.608
8,NCI-H2228,0.323
9,NCI-H23,0.727
10,HCC-827,0.238
11,NCI-H2347,0.412
12,LXF-289,0.635
13,NCI-H1666,0.843
14,RERF-LC-KJ,0.48
15,NCI-H650,0.702
16,NCI-H322M,0.537
17,NCI-H596,0.583

# Compound: COc1cccc2cc(-c3nc([C@H]4CC[C@H](C(=O)O)CC4)n4ncnc(N)c34)[nH]c12 [OSI-027] + C[C@]1(O)C[C@@H](c2nc(-c3ccc4ccc(-c5ccccc5)nc4c3)c3c(N)nccn32)C1 [Linsitinib] (partner 1 µM)
# Experiment: as above
# Settings: first compound 0.01 µM
# How it was run: as §1
row,Cell Line,relative viability
1,A-427,1.15
2,NCI-H2009,1.25
3,EKVX,0.986
4,NCI-H2087,1.03
5,NCI-H1734,0.937
6,LCLC-103H,0.994
7,LU99A,0.51
8,NCI-H460,0.95
9,SK-LU-1,1.06
10,COR-L23,1.02
11,HCC-15,0.881
12,NCI-H1944,1.11
13,EMC-BAC-2,0.824
14,NCI-H1395,1.18
15,LC-2-ad,0.847
16,NCI-H2085,0.884
17,NCI-H647,1.29

row,Cell Line,relative viability
1,HARA,0.894
2,NCI-H3122,1.04
3,NCI-H358,0.676
4,CAL-12T,0.704
5,COR-L 105,1.07
6,LCLC-97TM1,0.19
7,NCI-H520,1.08
8,NCI-H2228,0.637
9,NCI-H23,0.517
10,HCC-827,0.979
11,NCI-H2347,1.03
12,LXF-289,0.995
13,NCI-H1666,0.775
14,RERF-LC-KJ,0.839
15,NCI-H650,0.701
16,NCI-H322M,0.805
17,NCI-H596,0.981

# Same assay, conditions: first compound 0.03162 µM
row,Cell Line,relative viability
1,A-427,1.08
2,NCI-H2009,1.2
3,EKVX,0.894
4,NCI-H2087,0.845
5,NCI-H1734,0.794
6,LCLC-103H,0.968
7,LU99A,0.471
8,NCI-H460,0.34
9,SK-LU-1,0.83
10,COR-L23,0.837
11,HCC-15,0.857
12,NCI-H1944,1.14
13,EMC-BAC-2,0.762
14,NCI-H1395,1.16
15,LC-2-ad,0.751
16,NCI-H2085,0.847
17,NCI-H647,1.2

row,Cell Line,relative viability
1,HARA,0.803
2,NCI-H3122,1.04
3,NCI-H358,0.503
4,CAL-12T,0.753
5,COR-L 105,0.737
6,LCLC-97TM1,0.182
7,NCI-H520,0.931
8,NCI-H2228,0.768
9,NCI-H23,0.549
10,HCC-827,1.03
11,NCI-H2347,0.877
12,LXF-289,1.06
13,NCI-H1666,0.536
14,RERF-LC-KJ,0.776
15,NCI-H650,0.892
16,NCI-H322M,0.778
17,NCI-H596,0.978

# Same assay, conditions: first compound 0.1 µM
row,Cell Line,relative viability
1,A-427,1.05
2,NCI-H2009,1.16
3,EKVX,0.779
4,NCI-H2087,0.819
5,NCI-H1734,0.809
6,LCLC-103H,1.07
7,LU99A,0.355
8,NCI-H460,0.627
9,SK-LU-1,0.63
10,COR-L23,0.792
11,HCC-15,0.795
12,NCI-H1944,1.05
13,EMC-BAC-2,0.763
14,NCI-H1395,0.924
15,LC-2-ad,0.803
16,NCI-H2085,0.82
17,NCI-H647,0.944

row,Cell Line,relative viability
1,HARA,0.908
2,NCI-H3122,1.07
3,NCI-H358,0.671
4,CAL-12T,0.724
5,COR-L 105,0.966
6,LCLC-97TM1,0.139
7,NCI-H520,0.888
8,NCI-H2228,0.576
9,NCI-H23,0.452
10,HCC-827,0.935
11,NCI-H2347,0.883
12,LXF-289,0.972
13,NCI-H1666,0.459
14,RERF-LC-KJ,0.655
15,NCI-H650,0.492
16,NCI-H322M,0.787
17,NCI-H596,1.03

# Same assay, conditions: first compound 0.3162 µM
row,Cell Line,relative viability
1,A-427,0.746
2,NCI-H2009,1.03
3,EKVX,0.652
4,NCI-H2087,0.632
5,NCI-H1734,0.656
6,LCLC-103H,0.906
7,LU99A,0.243
8,NCI-H460,0.186
9,SK-LU-1,0.406
10,COR-L23,0.549
11,HCC-15,0.662
12,NCI-H1944,0.771
13,EMC-BAC-2,0.607
14,NCI-H1395,0.857
15,LC-2-ad,0.694
16,NCI-H2085,0.753
17,NCI-H647,0.855

row,Cell Line,relative viability
1,HARA,0.831
2,NCI-H3122,0.763
3,NCI-H358,0.376
4,CAL-12T,0.445
5,COR-L 105,0.749
6,LCLC-97TM1,0.117
7,NCI-H520,0.614
8,NCI-H23,0.237
9,HCC-827,0.943
10,NCI-H2347,0.885
11,LXF-289,0.956
12,NCI-H1666,0.337
13,RERF-LC-KJ,0.503
14,NCI-H650,0.442
15,NCI-H322M,0.589
16,NCI-H596,0.779

# Same assay, conditions: first compound 1 µM
row,Cell Line,relative viability
1,A-427,0.882
2,NCI-H2009,0.765
3,EKVX,0.292
4,NCI-H2087,0.29
5,NCI-H1734,0.309
6,LCLC-103H,1.05
7,LU99A,0.198
8,NCI-H460,0.105
9,SK-LU-1,0.306
10,COR-L23,0.181
11,HCC-15,0.463
12,NCI-H1944,0.836
13,EMC-BAC-2,0.305
14,NCI-H1395,0.77
15,LC-2-ad,0.291
16,NCI-H2085,0.422
17,NCI-H647,0.496

row,Cell Line,relative viability
1,HARA,0.201
2,NCI-H3122,0.289
3,NCI-H358,0.366
4,CAL-12T,0.353
5,COR-L 105,0.431
6,LCLC-97TM1,0.123
7,NCI-H520,0.311
8,NCI-H2228,0.368
9,NCI-H23,0.212
10,HCC-827,0.552
11,NCI-H2347,0.521
12,LXF-289,0.445
13,NCI-H1666,0.39
14,RERF-LC-KJ,0.376
15,NCI-H650,0.334
16,NCI-H322M,0.868
17,NCI-H596,0.483

# Compound: COc1cccc2cc(-c3nc([C@H]4CC[C@H](C(=O)O)CC4)n4ncnc(N)c34)[nH]c12 [OSI-027] + Cc1nc(NC(=O)N2CCC[C@H]2C(N)=O)sc1-c1ccnc(C(C)(C)C(F)(F)F)c1 [Alpelisib] (partner 2 µM)
# Experiment: as above
# Settings: first compound 0.01 µM
# How it was run: as §1
row,Cell Line,relative viability
1,A-427,1.04
2,NCI-H2009,1.14
3,EKVX,0.731
4,NCI-H2087,1.12
5,NCI-H1734,0.642
6,LCLC-103H,0.852
7,LU99A,0.486
8,NCI-H460,0.541
9,SK-LU-1,1.25
10,COR-L23,0.876
11,HCC-15,0.928
12,NCI-H1944,0.855
13,EMC-BAC-2,0.723
14,NCI-H1395,1.04
15,LC-2-ad,0.886
16,NCI-H2085,0.927
17,NCI-H647,1.15
18,HARA,0.81
19,NCI-H3122,0.711
20,NCI-H358,0.98
